Data set [1] can be described thus: Protein binding rate in plasma by equilibrium dialysis, beagle dogs. Conditions: 2 μM, equilibrium dialysis 4 hours. The class given is in vitro ADME. As to the method:
(§1) Protein binding rate of the assay compound in plasma of CD-1 mice, SD rats, beagle dogs, cynomolgus monkeys and human was determined by equilibrium dialysis. Plasma samples with a compound concentration of 2 μM were prepared using plasma of the above five species, placed in a 96-well equilibrium dialysis device, and dialyzed with phosphate buffer solution at 37±1° C. for 4 hours. Warfarin was used as the control compound in this assay. The concentrations of the assay compound in plasma and dialysis buffer were determined by LC-MS/MS method.
(In general: In equilibrium dialysis only unbound substance equilibrates across the membrane.)

Data set [2] can be described thus: Protein binding rate in plasma by equilibrium dialysis, human. The class given is in vitro ADME. Conditions: 2 μM, equilibrium dialysis 4 hours. On the procedure:
as §1

Data set [3] is described as follows: Metabolic stability in hepatocytes, cynomolgus monkeys. The format is in vitro ADME. Conditions: cynomolgus monkey, cryopreserved hepatocytes. On the procedure: (§2) Metabolic stabilities of assay compound in hepatocytes of CD-1 mice, SD rats, beagle dogs, cynomolgus monkeys, and human were assayed, respectively.
(§3) Several 96-well sample precipitation plates were prepared and named T0, T15, T30, T60, T90, T120, T0-MC, T120-MC and blank substrates, respectively. The recovery medium and incubation medium were taken out in advance and placed in a 37° C. water bath for pre-heating. Cryopreserved hepatocytes were removed from the liquid nitrogen tank and immediately immersed in a 37° C. water bath (approximately 90 seconds). After the cryopreserved hepatocytes had thawed and loosened, they were poured into a centrifuge tube containing 40 mL of recovery medium, and the tube was gently inverted to allow the cells to be resuspended in the recovery medium. The cells were centrifuged at 100×g at room temperature for 5 min, and the supernatant was removed. The hepatocytes were resuspended in an appropriate volume of incubation medium, and the cell viability was calculated by Trypan Blue staining method. 198 μL of hepatocyte suspension (0.51×10^6 cells/mL) was added to the preheated incubation plate. For the culture medium control group, 198 μL of hepatocyte-free incubation medium was added to T0-MC and T120-MC incubation plate. All incubation plates were pre-incubated in a 37° C. incubator for 10 minutes. Then 2 μL of working solutions of the assay sample and the control compound were added, respectively, and the mixture was mixed well. The incubation plate was immediately put into the shaker in the incubator, and the reaction was initiated while starting the timer. For each time point of each compound, 2 duplicate samples were prepared. The incubation conditions were 37° C., saturated humidity, and 5% CO2. […] All samples were mixed well and analyzed by LC/MS/MS.

The nature of data set [4]: Body weight and tolerance in the Mia PaCa-2 tumor model. Conditions: each dose group (10 and 30 mg/kg PO QD × 22). The class given is in vivo. As to the method:
Assay on pharmacodynamics in vivo in a subcutaneously transplanted tumor model of human pancreatic cancer Mia PaCa-2 cells in Balb/c Nude mice
Cell inoculation: 0.2 mL (5×10^6 cells/mouse) of Mia PaCa-2 cells (plus Matrigel, 1:1 by volume) were subcutaneously inoculated into the right back of each mouse. When the average tumor volume reached 190 mm^3, mice were randomized into groups based on tumor volume and administration was initiated according to the protocol in Table 15.

Data set [5] is described as follows: Pharmacokinetics by oral administration and intravenous injection in SD rats. The note with it: for Area under the plasma concentration-time curve, AUCu: AUC0-last × PPB(Unbound %); for Vd: SD, iv, 2 mg/kg; for AUC(0-t): read-out: Area under the plasma concentration-time curve, AUC0-last. The format is in vivo. On the procedure:
• 1) Assay on the pharmacokinetics of the assay compound by oral administration and intravenous injection in SD rats
The assay compound was mixed with 5% o dimethyl sulfoxide/95% o (10% hydroxypropyl-β-cyclodextrin) solution. The mixture was vortexed and sonicated to prepare a 1 mg/mL clear solution, which was filtered through a microporous membrane for later use. Male SD rats aged 7 to 10 weeks were selected, and administered candidate compound solutions intravenously or orally. Whole blood was collected for a certain period of time, and prepared to obtain plasma. Drug concentration was analyzed by LC-MS/MS method, and pharmacokinetic parameters were calculated by Phoenix WinNonlin software (Pharsight, USA).

Data set [6] in a line: Stability in whole blood, CD-1 mice. The format is in vitro ADME. Conditions: CD-1 mice whole blood, 5 μM, 37° C. As to the method: (§4) Stabilities of the assay compound in whole blood of CD-1 mice, SD rats, beagle dogs and cynomolgus monkeys were assayed, respectively. On the day of the assay or the day before the assay, fresh whole blood from CD-1 mice, SD rats, beagle dogs, and cynomolgus monkeys was collected using anticoagulant EDTA-K2. Prior to the start of the assay, the whole blood was mixed with PBS in 1:1 (v: v) and the mixture was preheated in a 37° C. water bath for 10 to 20 minutes. 96-well incubation plates were prepared and named T0, T30, T60, […], respectively. In the corresponding incubation plates, including T0, T30, T60 and […] incubation plates, 2 μL of working solutions of the compound or the control compound were mixed with 98 μL of blank whole blood of mice, rats, canines, monkeys and human in duplicate. All samples were incubated in a 37° C. water bath. The final incubation concentration of the compound was 5 μM and the final incubation concentration of the control compound was 2 μM. At the end of incubation for each time point, the corresponding incubation plate was removed and 100 μL of ultrapure water was immediately added to the corresponding sample wells, and mixed well. 800 μL of a solution of 200 ng/mL tolbutamide and labetalol in acetonitrile was added to precipitate the protein. […] 150 μL of supernatant was taken out and analyzed by LC/MS/MS.

The nature of data set [7]: Stability in whole blood, cynomolgus monkeys. The note with it: 5 μM, 37° C. The format is in vitro ADME. As to the method: as §4
Data set [8] is described as follows: Metabolic stability in hepatocytes, beagle dogs. The format is in vitro ADME. Conditions: dog, cryopreserved hepatocytes. On the procedure: as §2, §3

For orientation: bioavailability means the share of a dose that reaches the circulation, judged against a reference dose that is usually intravenous. As a reminder, the Tmax is the time at which the peak concentration occurs.

Where two headings read alike, the source gives them in different places.

Take `C=C(F)C(=O)N1CCN(c2nc(OC[C@@]34CCCN3C[C@H](F)C4)nc3c2CO[C@H](c2c(F)c(N)cc(C)c2C(F)(F)F)C3)C[C@@H]1CC#N` [Compound of formula (I)]: the “Protein unbound rate (%)” value amounted to 3.3% in data set [1] and 4.8% in data set [2]. Also, the half-life at 1 μM in data set [3] amounted to 27 min; in data set [8] it was 182 min. The hepatocyte CLint at 1 μM amounted to 51.3 µL/min/1e6 cells in data set [3] (read-out: CLint(hep)) and 7.6 µL/min/1e6 cells in data set [8] (read-out: CLint(hep)). The CLint scaled at 1 μM in data set [3] (read-out: CLint(liver)) amounted to 185 mL/min/kg; in data set [8] (read-out: CLint(liver)) it was 52.3 mL/min/kg. For the same molecule, the “body weight of mice” value in data set [4] is “stable”. Further, the tolerance result in data set [4] is “no obvious intolerance”. The “Area under the plasma concentration-time curve, AUCu” value was 31.3 nM·h in data set [5] (intravenous injection, 2.0 mg/kg) and 47.8 nM·h in data set [5] (oral administration, 9.8 mg/kg). For the same molecule, the Vd in data set [5] (male, rat, plasma, intravenous injection, 2.0 mg/kg, Vdss/PPB(Unbound %), read-out: Apparent volume of distribution, Vdss, u) is 221 L/kg; in data set [5] (male, rat, plasma, intravenous injection, 2.0 mg/kg, read-out: Apparent volume of distribution, Vdss) it was 10.6 L/kg. In addition, the AUC(0-t) in data set [5] (male, rat, plasma, intravenous injection, 2.0 mg/kg) is 0.653 µM·h; in data set [5] (male, rat, plasma, oral administration, 9.8 mg/kg), 0.995 µM·h. For the same molecule, the clearance in data set [5] (male, rat, plasma, intravenous injection, 2.0 mg/kg, read-out: Clearance rate, CL) was 71.5 mL/min/kg. For the same molecule, in data set [5] (male, rat, plasma, intravenous injection, 2.0 mg/kg, read-out: Half-life time, T1/2 (converted)), the half-life is 114 min. Moreover, the bioavailability in data set [5] (male, rat, plasma, oral administration, 9.8 mg/kg, read-out: Bioavailability F (%)) was 30.5%. The Cmax in data set [5] (male, rat, plasma, oral administration, 9.8 mg/kg, read-out: Peak concentration, Cmax) came to 220 nM. Besides, in data set [5] (male, rat, plasma, oral administration, 9.8 mg/kg, read-out: Time-to-peak, Tmax), the Tmax was 1.5 h. Besides, the “Peak concentration, Cmax, u” value in data set [5] (oral administration, 9.8 mg/kg, Cmax × PPB(Unbound %)) amounted to 10.6 nM. In addition, the “Detection of assay compound content within 240 min” value in data set [6] amounted to 117%; in data set [7], 77%.

The values are drawn from US20250129102A1, “CRYSTAL FORM OF PYRIMIDINE HETEROCYCLIC COMPOUND AND PREPARATION METHOD THEREFOR” (D3 Bio (Wuxi) Co., Ltd., priority 2021, published 2025).
